Measured values published in the NIST ThermoML archive (doi:10.1016/j.tca.2016.08.008).

Assay: molar heat capacity at constant pressure
Conditions: 101.33 kPa, Metastable crystal

O=P([O-])([O-])[O-].[Tb+3] [terbium orthophosphate]
Conditions	molar heat capacity at constant pressure [J/K/mol]
291.41 K, Vacuum adiabatic calorimetry	108
294.82 K, Vacuum adiabatic calorimetry	108.6
298.47 K, Vacuum adiabatic calorimetry	109.3
300 K, Vacuum adiabatic calorimetry	109.8
302.47 K, Vacuum adiabatic calorimetry	110
307.42 K, Vacuum adiabatic calorimetry	110.9
310 K, Vacuum adiabatic calorimetry	111.5
313.46 K, Vacuum adiabatic calorimetry	112.2
320 K, Vacuum adiabatic calorimetry	113.1
320.4 K, Vacuum adiabatic calorimetry	113.3
325 K, Vacuum adiabatic calorimetry	113.9
327.27 K, Vacuum adiabatic calorimetry	114.3
334.07 K, Vacuum adiabatic calorimetry	115.4
340 K, Small sample (50 mg) DSC	116.3
340.79 K, Vacuum adiabatic calorimetry	116.6
347.44 K, Vacuum adiabatic calorimetry	117.5
360 K, Small sample (50 mg) DSC	119
380 K, Small sample (50 mg) DSC	121.5
400 K, Small sample (50 mg) DSC	123.7
420 K, Small sample (50 mg) DSC	125.6
433.9 K, Small sample (50 mg) DSC	128.2
438.9 K, Small sample (50 mg) DSC	128.4
440 K, Small sample (50 mg) DSC	127.4
443.9 K, Small sample (50 mg) DSC	128.3
448.9 K, Small sample (50 mg) DSC	128.3
453.9 K, Small sample (50 mg) DSC	128.3
458.9 K, Small sample (50 mg) DSC	128.5
460 K, Small sample (50 mg) DSC	129
463.9 K, Small sample (50 mg) DSC	128.6
468.9 K, Small sample (50 mg) DSC	129
473.9 K, Small sample (50 mg) DSC	129.1
478.9 K, Small sample (50 mg) DSC	129.3
480 K, Small sample (50 mg) DSC	130.4
483.9 K, Small sample (50 mg) DSC	129.7
488.9 K, Small sample (50 mg) DSC	130.2
493.9 K, Small sample (50 mg) DSC	130.7
498.9 K, Small sample (50 mg) DSC	131.4
500 K, Small sample (50 mg) DSC	131.7
503.9 K, Small sample (50 mg) DSC	131.7
508.9 K, Small sample (50 mg) DSC	132.1
513.9 K, Small sample (50 mg) DSC	132.7
518.9 K, Small sample (50 mg) DSC	132.9
520 K, Small sample (50 mg) DSC	132.9
523.9 K, Small sample (50 mg) DSC	133.1
528.9 K, Small sample (50 mg) DSC	133.7
533.9 K, Small sample (50 mg) DSC	134.6
538.9 K, Small sample (50 mg) DSC	135.3
540 K, Small sample (50 mg) DSC	134
543.9 K, Small sample (50 mg) DSC	135.7
548.9 K, Small sample (50 mg) DSC	136.1
553.9 K, Small sample (50 mg) DSC	136.5
558.9 K, Small sample (50 mg) DSC	136.9
560 K, Small sample (50 mg) DSC	135
563.9 K, Small sample (50 mg) DSC	137.2
568.9 K, Small sample (50 mg) DSC	137.5
573.9 K, Small sample (50 mg) DSC	138
578.9 K, Small sample (50 mg) DSC	138.3
580 K, Small sample (50 mg) DSC	135.8
583.9 K, Small sample (50 mg) DSC	138.2
588.9 K, Small sample (50 mg) DSC	138.1
593.9 K, Small sample (50 mg) DSC	138.4
598.9 K, Small sample (50 mg) DSC	138.7
600 K, Small sample (50 mg) DSC	136.7
603.9 K, Small sample (50 mg) DSC	138.6
608.9 K, Small sample (50 mg) DSC	138.7
613.9 K, Small sample (50 mg) DSC	138.4
618.9 K, Small sample (50 mg) DSC	138.5
620 K, Small sample (50 mg) DSC	137.4
623.9 K, Small sample (50 mg) DSC	138.6
628.9 K, Small sample (50 mg) DSC	138.4
633.9 K, Small sample (50 mg) DSC	136.7
638.9 K, Small sample (50 mg) DSC	135.8
640 K, Small sample (50 mg) DSC	138.1
643.9 K, Small sample (50 mg) DSC	135.7
648.9 K, Small sample (50 mg) DSC	135.9
653.9 K, Small sample (50 mg) DSC	136.3
658.9 K, Small sample (50 mg) DSC	136.4
660 K, Small sample (50 mg) DSC	138.7
663.9 K, Small sample (50 mg) DSC	136.8
668.9 K, Small sample (50 mg) DSC	136.7
673.9 K, Small sample (50 mg) DSC	136.7
678.9 K, Small sample (50 mg) DSC	136.8
680 K, Small sample (50 mg) DSC	139.3
683.9 K, Small sample (50 mg) DSC	136.8
688.9 K, Small sample (50 mg) DSC	136.9
693.9 K, Small sample (50 mg) DSC	137.1
698.9 K, Small sample (50 mg) DSC	137.5
700 K, Small sample (50 mg) DSC	139.9
703.9 K, Small sample (50 mg) DSC	138
708.9 K, Small sample (50 mg) DSC	138.4
713.9 K, Small sample (50 mg) DSC	138.9
718.9 K, Small sample (50 mg) DSC	139.3
720 K, Small sample (50 mg) DSC	140.4
723.9 K, Small sample (50 mg) DSC	139.1
728.9 K, Small sample (50 mg) DSC	139.3
733.9 K, Small sample (50 mg) DSC	139.2
738.9 K, Small sample (50 mg) DSC	139.5
740 K, Small sample (50 mg) DSC	140.8
743.9 K, Small sample (50 mg) DSC	139.8
748.9 K, Small sample (50 mg) DSC	140.3
753.9 K, Small sample (50 mg) DSC	140.6
758.9 K, Small sample (50 mg) DSC	141.1
760 K, Small sample (50 mg) DSC	141.2
763.9 K, Small sample (50 mg) DSC	141.3
768.9 K, Small sample (50 mg) DSC	141.7
773.9 K, Small sample (50 mg) DSC	141.7
778.9 K, Small sample (50 mg) DSC	141.7
780 K, Small sample (50 mg) DSC	141.6
783.9 K, Small sample (50 mg) DSC	141.5
788.9 K, Small sample (50 mg) DSC	141.5
793.9 K, Small sample (50 mg) DSC	141.8
798.9 K, Small sample (50 mg) DSC	142.4
800 K, Small sample (50 mg) DSC	142
803.9 K, Small sample (50 mg) DSC	142.5
808.9 K, Small sample (50 mg) DSC	142.6
813.9 K, Small sample (50 mg) DSC	142.7
818.9 K, Small sample (50 mg) DSC	143.1
820 K, Small sample (50 mg) DSC	142.4
823.9 K, Small sample (50 mg) DSC	143
828.9 K, Small sample (50 mg) DSC	142.9
833.9 K, Small sample (50 mg) DSC	143.1
838.9 K, Small sample (50 mg) DSC	142.9
840 K, Small sample (50 mg) DSC	142.7
843.9 K, Small sample (50 mg) DSC	143.2
848.9 K, Small sample (50 mg) DSC	142.9
853.9 K, Small sample (50 mg) DSC	142.8
858.9 K, Small sample (50 mg) DSC	142.7
860 K, Small sample (50 mg) DSC	143
863.9 K, Small sample (50 mg) DSC	142.4
868.9 K, Small sample (50 mg) DSC	142
873.9 K, Small sample (50 mg) DSC	141.5
878.9 K, Small sample (50 mg) DSC	141.9
880 K, Small sample (50 mg) DSC	143.3
883.9 K, Small sample (50 mg) DSC	141.8
888.9 K, Small sample (50 mg) DSC	141.7
893.9 K, Small sample (50 mg) DSC	141.6
898.9 K, Small sample (50 mg) DSC	141.8
900 K, Small sample (50 mg) DSC	143.6
903.9 K, Small sample (50 mg) DSC	141.5
908.9 K, Small sample (50 mg) DSC	141.4
913.9 K, Small sample (50 mg) DSC	141.7
918.9 K, Small sample (50 mg) DSC	141.8
920 K, Small sample (50 mg) DSC	143.8
923.9 K, Small sample (50 mg) DSC	142.1
928.9 K, Small sample (50 mg) DSC	142.7
933.9 K, Small sample (50 mg) DSC	143
938.9 K, Small sample (50 mg) DSC	142.9
940 K, Small sample (50 mg) DSC	144
943.9 K, Small sample (50 mg) DSC	142.4
948.9 K, Small sample (50 mg) DSC	142.6
953.9 K, Small sample (50 mg) DSC	142.6
958.9 K, Small sample (50 mg) DSC	143.1
960 K, Small sample (50 mg) DSC	144.3
963.9 K, Small sample (50 mg) DSC	142.7
968.9 K, Small sample (50 mg) DSC	142.8
973.9 K, Small sample (50 mg) DSC	142.8
978.9 K, Small sample (50 mg) DSC	142.6
980 K, Small sample (50 mg) DSC	144.5
983.9 K, Small sample (50 mg) DSC	142.5
988.9 K, Small sample (50 mg) DSC	142.5
993.9 K, Small sample (50 mg) DSC	142.6
998.9 K, Small sample (50 mg) DSC	142.9
1000 K, Small sample (50 mg) DSC	144.7
1003.9 K, Small sample (50 mg) DSC	143
1008.9 K, Small sample (50 mg) DSC	143.3
1009 K, Small sample (50 mg) DSC	144.8
